Assay results: patent publication US8465963B2, “Grass endophyte enhanced attributes” (priority 2005, dated 2013)

Tests used:
[1] = system: Neotyphodium endophytes in perennial ryegrass; settings: fungicide soak; cited from earlier work
[2] = system: Neotyphodium endophytes in tall fescue; settings: fungicide soak; cited from earlier work
[3] = system: endophytes (AR502, AR542 and AR584); test: Trial 1 field trial: effect of fungicides on viable endophytes, means over endophytes; settings: means of all other treatments
Source text: The pH of the solution is 7.5.

[4] = system: ryegrass (Lolium perenne) seed infected with Neotyphodium endophyte; settings: prochloraze 1 g/kg; triticonazole 5 and 10 g/kg; cited from earlier work

SMILES: COC(=O)NC(=S)Nc1ccccc1NC(=S)NC(=O)OC [Thiophanate-methyl]
- effect of fungicide on endophyte [1]: little effect on endophyte
- effect of fungicide on endophyte [2]: no effect on endophyte

SMILES: O=CNC(N1CCN(C(NC=O)C(Cl)(Cl)Cl)CC1)C(Cl)(Cl)Cl (stereo not drawn) [Triforine]
- effect of fungicide on endophyte [1]: effective in some perennial ryegrass plants
- effect of fungicide on endophyte [2]: effective in tall fescue

SMILES: CCCCNC(=O)n1c(NC(=O)OC)nc2ccccc21 [benomyl]
- effect of fungicide on endophyte [1]: effective in killing endophyte
- effect of fungicide on endophyte [2]: effective in killing endophyte

SMILES: Fc1ccc([C@]2(Cn3cncn3)O[C@H]2c2ccccc2Cl)cc1 [epiconazole]
- level of viable endophyte [3]: most significantly reducing viable endophyte levels

SMILES: CCCN(CCOc1c(Cl)cc(Cl)cc1Cl)C(=O)n1ccnc1 [prochloraze]
- seed germination [4]: effected

SMILES: CC1(C)CCC(=Cc2ccc(Cl)cc2)C1(O)Cn1cncn1 (stereo not drawn) [triticonazole]
- seed germination [4]: effected
